# Biological target: T1, human neutrophil elastase (HNE) (Homo sapiens, UniProt P08246)
# T1 construct: purchased Sigma E8140
# T1 sequence (P08246 30-247 limits assumed): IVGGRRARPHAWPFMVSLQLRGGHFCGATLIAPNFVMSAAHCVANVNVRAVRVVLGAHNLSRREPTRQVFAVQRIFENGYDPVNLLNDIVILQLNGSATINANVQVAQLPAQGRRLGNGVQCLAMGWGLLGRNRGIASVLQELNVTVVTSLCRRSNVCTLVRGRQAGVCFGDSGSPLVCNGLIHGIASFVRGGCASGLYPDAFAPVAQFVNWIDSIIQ
# Test: HNE Enzyme Assay (fluorogenic peptide substrate MeOSuc-Ala-Ala-Pro-Val-AMC)
# Type: biochemical
# Conditions: human leukocyte elastase 0.00072 U/mL, substrate 100 μM, 25° C., 30 minutes, at least two separate experiments; read-out: HNE inhibition (IC50 values)
# Experimental: Compounds of this invention were tested for potency in a human neutrophil elastase (HNE) enzyme activity assay.
# Assays were performed in 96-well plates in a total assay volume of 100 μL. The final concentration of elastase enzyme (human leukocyte elastase, Sigma E8140) was 0.00072 U/mL. The peptide substrate (MeOSuc-Ala-Ala-Pro-Val-AMC, Calbiochem #324740) was used at a final concentration of 100 μM. The final concentration of DMSO was 1% in the assay buffer (0.05M Tris.HCl, 0.1M NaCl, 0.1M CaCl2, 0.0005% Brij-35, pH 7.5). The enzymatic reaction was started by addition of the enzyme and incubated at 25° C. for 30 minutes. After incubation, the reaction was stopped by addition of soybean trypsin inhibitor (Sigma T9003) at a final concentration of 50 μg/well. Fluorescence was measured using a Molecular Devices fluorescence plate reader using 380 nm excitation and 460 nm emission wavelengths.
# A concentration response to each compound was performed and the effect of compound in each experiment was expressed as a percentage inhibition of the control enzyme fluorescence. Dose response curves were plotted and compound potency (IC50) was determined. Compounds were tested in at least two separate experiments.
row,IC50 [nM],Compound
1,< 1,"Cc1c(-c2ccnn2-c2ccc(C#N)cc2)n(C(=O)NC2CCN(C(=O)OCc3ccccc3)CC2)c(=O)n1-c1cccc(C(F)(F)F)c1 [Example 3, 4-{[5-[2-(4-Cyano-phenyl)-2H-pyrazol-3-yl]-4-methyl-2-oxo-3-(3-trifluoromethyl-phenyl)-2,3-dihydro-imidazole-1-carbonyl]-amino}-piperidine-1-carboxylic acid benzyl ester]"
2,< 1,"Cc1c(-c2ccnn2-c2ccc(C#N)cc2)n(C(=O)N[C@@H](C)C(=O)N(C)CC2CCN(C)CC2)c(=O)n1-c1cccc(C(F)(F)F)c1 [Example 18, 5-[2-(4-Cyano-phenyl)-2H-pyrazol-3-yl]-4-methyl-2-oxo-3-(3-trifluoromethyl-phenyl)-2,3-dihydro-imidazole-1-carboxylic acid {(S)-1-[methyl-(1-methyl-piperidin-4-ylmethyl)-carbamoyl]-ethyl}-amide]"
3,< 1,"Cc1c(-c2nccn2-c2ccc(C#N)cc2)n(C(=O)NC2CCN(C(=O)C[N+](C)(C)C)CC2)c(=O)n1-c1cccc(C(F)(F)F)c1 [Example 94, [2-(4-{[1-(4-Cyano-phenyl)-5′-methyl-2′-oxo-1′-(3-trifluoromethyl-phenyl)-1′,2′-dihydro-1H-[2,4′]biimidazolyl-3′-carbonyl]-amino}-piperidin-1-yl)-2-oxo-ethyl]-trimethyl-ammonium benzene sulfonate]"
4,< 1,"CC[N+](C)(C)[C@H]1CC[C@H](NC(=O)n2c(-c3ccnn3-c3ccc(C#N)cc3)c(C)n(-c3cccc(C(F)(F)F)c3)c2=O)CC1 [Example 44, (Trans-4-{[5-[2-(4-cyano-phenyl)-2H-pyrazol-3-yl]-4-methyl-2-oxo-3-(3-trifluoromethyl-phenyl)-2,3-dihydro-imidazole-1-carbonyl]-amino}-cyclohexyl)-ethyl-dimethyl-ammonium benzene sulfonate]"
5,< 1,"Cc1c(-c2ccnn2-c2ccc(C#N)cc2)n(C(=O)NC2CCN(C(=O)NCC[N+](C)(C)C)CC2)c(=O)n1-c1cccc(C(F)(F)F)c1 [Example 92, {2-[(4-{[5-[2-(4-Cyano-phenyl)-2H-pyrazol-3-yl]-4-methyl-2-oxo-3-(3-trifluoromethyl-phenyl)-2,3-dihydro-imidazole-1-carbonyl]-amino}-piperidine-1-carbonyl)-amino]-ethyl}-trimethyl-ammonium benzene sulfonate]"
6,< 1,"Cc1c(-c2ccnn2-c2ccc(C#N)cc2)n(C(=O)NC(C)(C)c2ncc(CN(C)C)o2)c(=O)n1-c1cccc(C(F)(F)F)c1 [Example 24, 5-[2-(4-Cyano-phenyl)-2H-pyrazol-3-yl]-4-methyl-2-oxo-3-(3-trifluoromethyl-phenyl)-2,3-dihydro-imidazole-1-carboxylic acid [1-(5-dimethylaminomethyl-oxazol-2-yl)-1-methyl-ethyl]-amide]"
7,1 to 10,"Cc1c(-c2ccnn2-c2ccc(C#N)cc2)n(C(=O)N[C@H]2CC[C@@H](C[N+](C)(C)Cc3ccccc3)CC2)c(=O)n1-c1cccc(C(F)(F)F)c1 [Example 54, Benzyl-(cis-4-{[5-[2-(4-cyano-phenyl)-2H-pyrazol-3-yl]-4-methyl-2-oxo-3-(3-trifiuoromethyl-phenyl)-2,3-dihydro-imidazole-1-carbonyl]-amino}-cyclohexylmethyl)-dimethyl-ammonium bromide]"
8,< 1,"Cc1c(-c2ccnn2-c2ccc(C#N)cc2)n(C(=O)N[C@H]2C[C@@H](C[N+](C)(C)C)C2)c(=O)n1-c1cccc(C(F)(F)F)c1 [Example 67, (Cis-3-{[5-[2-(4-cyano-phenyl)-2H-pyrazol-3-yl]-4-methyl-2-oxo-3-(3-trifluoromethyl-phenyl)-2,3-dihydro-imidazole-1-carbonyl]-amino}-cyclobutylmethyl)-trimethyl-ammonium benzene sulfonate]"
9,< 1,"Cc1c(-c2ccnn2-c2ccc(C#N)cc2)n(C(=O)N[C@H]2CC[N+](C)(C)C2)c(=O)n1-c1cccc(C(F)(F)F)c1 [Example 34, (S)-3-{[5-[2-(4-Cyano-phenyl)-2H-pyrazol-3-yl]-4-methyl-2-oxo-3-(3-trifluoromethyl-phenyl)-2,3-dihydro-imidazole-1-carbonyl]-amino}-1,1-dimethyl-pyrrolidinium benzenesulfonate]"
10,< 1,"Cc1c(-c2ccnn2-c2ccc(C#N)cc2)n(C(=O)N[C@H]2CC[C@H](NC(=O)C[N+](C)(C)C)CC2)c(=O)n1-c1cccc(C(F)(F)F)c1 [Example 87, [(Trans-4-{[5-[2-(4-cyano-phenyl)-2H-pyrazol-3-yl]-4-methyl-2-oxo-3-(3-trifluoromethyl-phenyl)-2,3-dihydro-imidazole-1-carbonyl]-amino}-cyclohexylcarbamoyl)-methyl]-trimethyl-ammonium benzene sulfonate]"
11,< 1,"Cc1c(-c2ccnn2-c2ccc(C#N)cc2)n(C(=O)N[C@H]2CC[C@H](CNC(=O)C[N+](C)(C)C)CC2)c(=O)n1-c1cccc(C(F)(F)F)c1 [Example 86, {[(Trans-4-{[5-[2-(4-cyano-phenyl)-2H-pyrazol-3-yl]-4-methyl-2-oxo-3-(3-trifluoromethyl-phenyl)-2,3-dihydro-imidazole-1-carbonyl]-amino}-cyclohexylmethyl)-carbamoyl]-methyl}-trimethyl-ammonium benzene sulfonate]"
12,1 to 10,"Cc1c(-c2ccnn2-c2ccc(C#N)cc2)n(C(=O)N[C@@H]2CC[N+](C)(C)C2)c(=O)n1-c1cccc(C(F)(F)F)c1 [Example 33, (R)-3-{[5-[2-(4-Cyano-phenyl)-2H-pyrazol-3-yl]-4-methyl-2-oxo-3-(3-trifluoromethyl-phenyl)-2,3-dihydro-imidazole-1-carbonyl]-amino}-1,1-dimethyl-pyrrolidinium benzenesulfonate]"
13,< 1,"Cc1c(-c2ccnn2-c2ccc(C#N)cc2)n(C(=O)N[C@@H](C)C(=O)N2CCC([N+](C)(C)Cc3ccccc3)CC2)c(=O)n1-c1cccc(C(F)(F)F)c1 [Example 70, Benzyl-[1-((S)-2-{[5-[2-(4-cyano-phenyl)-2H-pyrazol-3-yl]-4-methyl-2-oxo-3-(3-trifluoromethyl-phenyl)-2,3-dihydro-imidazole-1-carbonyl]-amino}-propionyl)-piperidin-4-yl]-dimethyl-ammonium bromide]"
14,< 1,"Cc1c(-c2ccnn2-c2ccc(C#N)cc2)n(C(=O)N[C@@H]2C[C@@H]3CN(C(=O)OC(C)(C)C)C[C@@H]3C2)c(=O)n1-c1cccc(C(F)(F)F)c1 [Example 10, (3aS,5R,6aR)-5-{[5-[2-(4-Cyano-phenyl)-2H-pyrazol-3-yl]-4-methyl-2-oxo-3-(3-trifluoromethyl-phenyl)-2,3-dihydro-imidazole-1-carbonyl]-amino}-hexahydro-cyclopenta[c]pyrrole-2-carboxylic acid tert-butyl ester]"
15,< 1,"Cc1c(-c2ccnn2-c2ccc(C#N)cc2)n(C(=O)N[C@@H](C)C(=O)N2CC[N+](C)(Cc3ccccc3)CC2)c(=O)n1-c1cccc(C(F)(F)F)c1 [Example 49, 1-Benzyl-4-((S)-2-{[5-[2-(4-cyano-phenyl)-2H-pyrazol-3-yl]-4-methyl-2-oxo-3-(3-trifluoromethyl-phenyl)-2,3-dihydro-imidazole-1-carbonyl]-amino}-propionyl)-1-methyl-piperazin-1-ium bromide]"

# Reference: patent US10023558B2, “Compounds” (CHIESI FARMACEUTICI S.P.A., priority 2016, dated 2018)
